In ChEMBL document CHEMBL1136951, “5-hydroxyindole-2-carboxylic acid amides: novel histamine-3 receptor inverse agonists for the treatment of obesity” (J Med Chem, 2009):

Assays:
[1] = human, microsomes, 2 µM
[2] = rat, microsomes, 2 µM
physchem [3] = assay: physchem
physchem [4] = settings: octanol/water, pH 7.4
Rattus norvegicus [5] = organism: Rattus norvegicus; assay: animal or person; settings: Wistar, ip, read-out: INH
in vivo [6] = settings: Sprague-Dawley, rat, brain, ip, 10 mg/kg
in vivo [7] = settings: Wistar, rat
Rattus norvegicus [8] = organism: Rattus norvegicus; assay: animal or person; settings: Wistar, ip, read-out: INH; remark: listed apart in the source
in vivo [9] = settings: Sprague-Dawley, rat, brain/plasma, ip, 30 mg/kg
in vivo [10] = settings: Sprague-Dawley, rat, brain, ip, 30 mg/kg
hERG (KCNH2) = hERG (KCNH2) (Homo sapiens, UniProt Q12809); assay: in vitro; settings: CHO cells expressing human ERG
Chain of hERG (KCNH2) (Q12809 whole entry): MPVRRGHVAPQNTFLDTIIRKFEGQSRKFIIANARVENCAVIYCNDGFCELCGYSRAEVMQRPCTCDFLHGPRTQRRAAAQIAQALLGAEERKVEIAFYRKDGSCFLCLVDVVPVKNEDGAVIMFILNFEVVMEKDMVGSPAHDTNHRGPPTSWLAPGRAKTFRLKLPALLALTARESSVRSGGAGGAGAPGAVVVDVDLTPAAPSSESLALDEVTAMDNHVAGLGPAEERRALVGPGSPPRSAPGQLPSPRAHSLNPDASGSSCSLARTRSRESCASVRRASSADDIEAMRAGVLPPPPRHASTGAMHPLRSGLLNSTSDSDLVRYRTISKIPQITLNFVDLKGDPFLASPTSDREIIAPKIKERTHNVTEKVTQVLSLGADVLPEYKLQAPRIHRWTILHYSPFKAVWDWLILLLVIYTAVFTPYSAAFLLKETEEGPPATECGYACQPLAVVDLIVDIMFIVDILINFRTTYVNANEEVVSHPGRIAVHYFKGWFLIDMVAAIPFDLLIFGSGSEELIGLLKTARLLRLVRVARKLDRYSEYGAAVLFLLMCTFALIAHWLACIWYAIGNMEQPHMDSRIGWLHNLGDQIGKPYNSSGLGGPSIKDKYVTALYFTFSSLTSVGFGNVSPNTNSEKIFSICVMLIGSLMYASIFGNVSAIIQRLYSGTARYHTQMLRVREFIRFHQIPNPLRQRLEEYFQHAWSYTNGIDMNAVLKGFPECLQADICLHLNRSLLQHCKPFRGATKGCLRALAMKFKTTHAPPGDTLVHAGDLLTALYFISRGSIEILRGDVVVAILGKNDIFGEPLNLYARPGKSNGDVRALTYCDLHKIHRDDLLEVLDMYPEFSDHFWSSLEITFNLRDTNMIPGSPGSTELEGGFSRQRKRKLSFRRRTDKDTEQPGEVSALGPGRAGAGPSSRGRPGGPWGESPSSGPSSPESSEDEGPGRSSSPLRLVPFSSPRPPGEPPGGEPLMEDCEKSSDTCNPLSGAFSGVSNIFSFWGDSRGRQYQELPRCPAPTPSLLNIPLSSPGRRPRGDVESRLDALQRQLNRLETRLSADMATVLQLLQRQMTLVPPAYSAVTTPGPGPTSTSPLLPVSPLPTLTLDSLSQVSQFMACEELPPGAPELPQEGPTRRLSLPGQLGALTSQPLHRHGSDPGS

[11] = target: Histamine H1 receptor (Homo sapiens) (UniProt P35367); settings: CHO, 3 uM
Chain of Histamine H1 receptor (Homo sapiens) (P35367 whole entry): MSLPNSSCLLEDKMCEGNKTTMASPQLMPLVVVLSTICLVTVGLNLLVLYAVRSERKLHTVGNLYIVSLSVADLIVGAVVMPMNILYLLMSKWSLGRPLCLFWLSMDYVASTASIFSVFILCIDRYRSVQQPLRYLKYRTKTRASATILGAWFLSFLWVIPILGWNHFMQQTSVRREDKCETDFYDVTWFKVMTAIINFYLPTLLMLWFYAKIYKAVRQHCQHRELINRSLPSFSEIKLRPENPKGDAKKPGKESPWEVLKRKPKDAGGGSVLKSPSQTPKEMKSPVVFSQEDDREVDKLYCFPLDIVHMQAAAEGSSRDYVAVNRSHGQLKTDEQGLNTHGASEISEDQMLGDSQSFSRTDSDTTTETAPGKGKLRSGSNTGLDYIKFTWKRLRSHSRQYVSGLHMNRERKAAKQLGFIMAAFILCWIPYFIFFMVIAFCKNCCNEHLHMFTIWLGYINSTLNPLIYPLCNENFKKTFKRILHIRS

[12] = target: Histamine H2 receptor (Homo sapiens) (UniProt P25021); settings: CHO, 3 uM
Chain of Histamine H2 receptor (Homo sapiens) (P25021 whole entry): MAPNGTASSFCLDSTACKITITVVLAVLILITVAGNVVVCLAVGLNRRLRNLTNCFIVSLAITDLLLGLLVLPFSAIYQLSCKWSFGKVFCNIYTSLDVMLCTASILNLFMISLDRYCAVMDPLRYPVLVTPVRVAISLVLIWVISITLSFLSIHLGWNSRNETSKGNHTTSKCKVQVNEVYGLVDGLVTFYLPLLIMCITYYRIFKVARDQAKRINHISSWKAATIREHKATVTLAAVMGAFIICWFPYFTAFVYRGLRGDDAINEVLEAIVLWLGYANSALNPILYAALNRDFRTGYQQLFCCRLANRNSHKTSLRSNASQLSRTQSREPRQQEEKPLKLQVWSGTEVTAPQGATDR

[13] = target: Histamine H4 receptor (Homo sapiens) (UniProt Q9H3N8); settings: CHO, 3 uM
Chain of Histamine H4 receptor (Homo sapiens) (Q9H3N8 whole entry): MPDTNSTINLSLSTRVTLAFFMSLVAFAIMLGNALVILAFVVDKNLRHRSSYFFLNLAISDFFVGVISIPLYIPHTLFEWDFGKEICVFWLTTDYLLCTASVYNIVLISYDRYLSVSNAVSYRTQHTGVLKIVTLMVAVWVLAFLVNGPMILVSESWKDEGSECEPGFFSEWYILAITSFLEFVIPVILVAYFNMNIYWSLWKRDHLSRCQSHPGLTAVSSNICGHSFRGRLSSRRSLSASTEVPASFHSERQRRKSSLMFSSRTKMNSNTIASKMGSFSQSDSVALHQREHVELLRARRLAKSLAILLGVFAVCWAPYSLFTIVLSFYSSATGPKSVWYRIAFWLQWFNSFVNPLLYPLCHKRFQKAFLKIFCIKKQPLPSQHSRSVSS

Rattus norvegicus [14] = organism: Rattus norvegicus; assay: animal or person; settings: Wistar, ip, read-out: INH; remark: listed apart in the source
in vivo [15] = settings: Wistar, rat; remark: listed apart in the source
Rattus norvegicus [16] = organism: Rattus norvegicus; assay: animal or person; settings: Wistar, po, read-out: INH
in vivo [17] = settings: Sprague-Dawley, rat, brain, po, 10 mg/kg
Rattus norvegicus [18] = organism: Rattus norvegicus; assay: animal or person; settings: Wistar, po, read-out: INH; remark: listed apart in the source
in vivo [19] = settings: Wistar, rat; remark: listed apart in the source
physchem [20] = assay: physchem; remark: listed apart in the source
Rattus norvegicus [21] = organism: Rattus norvegicus; assay: animal or person; settings: Wistar, ip, read-out: INH; remark: listed apart in the source
[22] = target: Histamine H3 receptor (Homo sapiens) (UniProt Q9Y5N1); settings: CHO, 3 uM
Chain of Histamine H3 receptor (Homo sapiens) (Q9Y5N1 whole entry): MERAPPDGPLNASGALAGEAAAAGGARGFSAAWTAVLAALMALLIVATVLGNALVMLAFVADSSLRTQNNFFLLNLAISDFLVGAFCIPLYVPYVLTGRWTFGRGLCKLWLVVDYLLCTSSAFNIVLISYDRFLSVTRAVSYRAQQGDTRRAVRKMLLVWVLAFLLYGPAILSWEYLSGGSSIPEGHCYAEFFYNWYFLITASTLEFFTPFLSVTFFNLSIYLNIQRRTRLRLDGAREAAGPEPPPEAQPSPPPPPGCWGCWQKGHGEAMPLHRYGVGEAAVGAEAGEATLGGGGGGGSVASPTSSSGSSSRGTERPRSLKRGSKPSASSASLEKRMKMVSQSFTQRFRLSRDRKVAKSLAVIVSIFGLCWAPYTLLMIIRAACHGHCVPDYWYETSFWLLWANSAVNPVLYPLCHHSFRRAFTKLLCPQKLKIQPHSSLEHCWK

Structure (SMILES) | clearance [1] [µL/min/mg] | clearance [2] [µL/min/mg] | pKa (physchem [3]) | logD (physchem [4]) | also measured
CC(C)N1CCC(Oc2ccc3[nH]c(C(=O)N4CCC(O)C4)cc3c2)CC1 (stereo not drawn) | 12 | 5 | 9.8 | -0.15 | inhibition in vivo at 30 mg/kg (Rattus norvegicus [5]): 83%
CC(C)N1CCC(Oc2ccc3c(c2)cc(C(=O)N2CCC(F)(F)CC2)n3CC(F)(F)F)CC1 | 2 | 8 | 9.7 | 2.08 | concentration at 2 h (in vivo [6]): 435 ng/g; half-life (in vivo [7]): 1.8 h; inhibition in vivo at 3 mg/kg (Rattus norvegicus [8]): 49%
CC(C)N1CCC(Nc2ccc3[nH]c(C(=O)N4CCOCC4)cc3c2)CC1 | 5 | 9 | 9.9 | -0.7 | inhibition in vivo at 30 mg/kg (Rattus norvegicus [5]): 99%
O=C(c1cc2cc(OC3CCN(C4CC4)CC3)ccc2[nH]1)N1CCOCC1 | 5 | 347 | 7.7 | 1.95 | 
O=C(c1cc2cc(OC3CCN(C4CC4)CC3)ccc2n1CC(F)(F)F)N1CCOCC1 | 11 | 143 | 7.5 | 2.79 | 
CC(C)N1CCC(Oc2ccc3[nH]c(C(=O)N4CCOCC4)cc3c2)CC1 | < 1 | 12 | 10 | 0.09 | Kp (in vivo [9]): 0.3; concentration at 2 h (in vivo [10]): 2230 ng/g; half-life (in vivo [7]): 1 h; inhibition at 10 µM (hERG (KCNH2)): 28%; inhibition in vivo at 30 mg/kg (Rattus norvegicus [5]): 91%
CC(=O)n1c(C(=O)N2CCC(F)(F)CC2)cc2cc(OC3CCN(C(C)C)CC3)ccc21 | < 1 |  |  |  | 
O=C(c1cc2cc(OC3CCN(C4CCC4)CC3)ccc2n1CC(F)(F)F)N1CCOCC1 | 4 | 28 | 9.1 | 2.09 | 
O=C(c1cc2cc(OCCCN3CCCCC3)ccc2[nH]1)N1CCOCC1 | < 1 | 6 | 10 | 0.32 | inhibition [11]: 6%; inhibition [12]: 3%; inhibition [13]: 4%; inhibition in vivo at 10 mg/kg (Rattus norvegicus [14]): 66%
CC(C)N1CCC(Oc2ccc3c(c2)cc(C(=O)N2CCC(F)(F)CC2)n3S(C)(=O)=O)CC1 | < 1 | 10 | 9.6 | 1.31 | half-life (in vivo [7]): 6 h; Vd (in vivo [15]): 9.2 L/kg; inhibition at 10 µM (hERG (KCNH2)): 64%; inhibition in vivo at 3 mg/kg (Rattus norvegicus [16]): 81%
CC(C)N1CCC(Oc2cc3[nH]c(C(=O)N4CCOCC4)cc3cc2F)CC1 | 6 | 18 | 9.5 |  | 
COC1CCN(C(=O)c2cc3cc(OC4CCN(C(C)C)CC4)ccc3[nH]2)CC1 | 5 | 20 | 9.9 | 0.59 | inhibition in vivo at 30 mg/kg (Rattus norvegicus [5]): 70%
CCOC(=O)c1cc2cc(C(=O)O)ccc2[nH]1 | < 1 | 15 |  | 0.04 | 
CC(C)N1CCC(Oc2ccc3c(c2)cc(C(=O)N2CCC(F)(F)CC2)n3C(C)C)CC1 | 4 | 12 | 9.9 | 1.67 | concentration at 2 h (in vivo [17]): 1270 ng/g; half-life (in vivo [7]): 11 h; Vd (in vivo [15]): 9.2 L/kg; inhibition at 10 µM (hERG (KCNH2)): 42%; inhibition in vivo at 3 mg/kg (Rattus norvegicus [8]): 80%
CC(C)N1CCC(Oc2ccc3c(c2)cc(C(=O)N2CCC(F)(F)CC2)n3CC#N)CC1 | < 1 | 16 | 9.8 | 1.13 | 
CC(C)(C)N1CCC(Oc2ccc3[nH]c(C(=O)N4CCOCC4)cc3c2)CC1 | 10 | 13 | 10 | 0.03 | 
CC(C)N1CCC(Oc2ccc3[nH]c(C(=O)N4CCCCCC4)cc3c2)CC1 | 10 | 55 | 9.7 | 1.75 | inhibition in vivo at 10 mg/kg (Rattus norvegicus [14]): 76%
CC(C)N1CCC(Oc2ccc3c(c2)cc(C(=O)N2CCOCC2)n3CC(F)(F)F)CC1 | < 1 | 13 | 9.7 | 1.1 | inhibition in vivo at 10 mg/kg (Rattus norvegicus [18]): 87%; inhibition in vivo at 10 mg/kg (Rattus norvegicus [14]): 87%
CC(C)N1CCC(Oc2ccc3cc(C(=O)N4CCOCC4)[nH]c3c2)CC1 | < 1 | 8 | 9.7 | 0.31 | inhibition in vivo at 10 mg/kg (Rattus norvegicus [14]): 60%
CC(C)N1CCC(Oc2ccc3c(c2)cc(C(=O)N2CCC(F)(F)CC2)n3S(=O)(=O)c2ccc(F)cc2)CC1 | < 1 | 20 |  | 3.04 | inhibition [12]: > 30%
O=C(c1ccc2c(c1)cc(C(=O)N1CCOCC1)n2CC(F)(F)F)N1CCN(C2CCC2)CC1 | 10 | 16 | 6.8 | 1.97 | Kp (in vivo [9]): 0.3; Vd (in vivo [15]): 1.5 L/kg; inhibition at 10 µM (hERG (KCNH2)): 33%; inhibition in vivo at 10 mg/kg (Rattus norvegicus [18]): 93%
Cc1[nH]c2ccc(OC3CCN(C(C)C)CC3)cc2c1C(=O)N1CCOCC1 | < 1 | 15 | 9.8 | -0.12 | 
CC(C)N1CCC(Oc2ccc3c(c2)cc(C(=O)N2CCS(=O)(=O)CC2)n3CC(F)(F)F)CC1 | 1 | 4 | 9.6 | 0.35 | 
CC(C)N1CCC(Oc2ccc3[nH]c(C(=O)N4CCC(F)(F)CC4)cc3c2)CC1 | 5 | 9 | 9.7 | 1.2 | concentration at 2 h (in vivo [17]): 1690 ng/g; half-life (in vivo [7]): 4 h; bioavailability (in vivo [19]): 100%; inhibition at 10 µM (hERG (KCNH2)): 73%; solubility (physchem [20]): > 540 µg/mL; inhibition in vivo at 1 mg/kg (Rattus norvegicus [21]): 58%
O=C(c1cc2cc(OC3CCN(C4COC4)CC3)ccc2n1CC(F)(F)F)N1CCOCC1 | 8 | 228 | 6.4 | 1.83 | 
CC(C)N1CCC(Oc2ccc3c(c2)cc(C(=O)N2CCC(F)(F)CC2)n3-c2ccc(Cl)c(Cl)c2)CC1 | < 1 | 104 |  | 3.38 | inhibition [12]: > 30%
CC(C)N1CCC(Oc2ccc3[nH]c(C(=O)N4CCCC(F)(F)C4)cc3c2)CC1 | < 1 | 17 | 10 | 1.23 | inhibition in vivo at 10 mg/kg (Rattus norvegicus [14]): 86%
CCN(c1ccc2[nH]c(C(=O)N3CCOCC3)cc2c1)C1CCN(C(C)C)CC1 |  |  |  |  | inhibition [22]: 19%
